This note sets out measurements from US20030031688A1, “Cosmetic composition with improved skin moisturizing properties” (priority 2001, published 2003).

The data set is described as follows: Moisture uptake of powder samples in controlled humidity chamber. It is filed as physicochemical. The following applies: 65% relative humidity at 25° C. The procedure:
A mixture of urea and coenzyme Q10 (9:1 Wt./wt.)) was prepared as a dry blend of the raw materials by manually mixing urea (9 parts by weight) and coenzyme Q10 (1 part by weight), with mortar and pestle grinding as necessary, to provide an essentially homogeneous powder. The moisture-absorbing properties were determined based on the amount of moisture uptake over time. For comparison, the moisture-absorbing properties of powder samples of the unblended individual raw materials, i.e., urea alone and coenzyme Q10 alone, were measured.
The samples were placed in a controlled humidity chamber (65% relative humidity at 25° C.) and the mass of each sample was measured at various time points. The water uptake is reflected by the increase in mass over time.
The percentage values shown in Table 1 reflect the percentage increase in mass relative to the weight of the starting sample (prior to being placed in the controlled humidity chamber). The expected percentage values for the blend (“Expected”) were calculated on the basis of the fractional contribution of each component alone, as represented by the following equation: Expected %=(0.9×% measured for urea alone)+(0.1×% measured for Q10 alone).

The structures appear in SMILES notation.

Take `COC1=C(OC)C(=O)C(C/C=C(\C)CC/C=C(\C)CC/C=C(\C)CC/C=C(\C)CC/C=C(\C)CC/C=C(\C)CC/C=C(\C)CC/C=C(\C)CC/C=C(\C)CCC=C(C)C)=C(C)C1=O` [Product Q10, coenzyme Q10]: the “percentage increase in mass relative to the weight of the starting sample (water uptake)” value is listed as 1.0% (time 5); 0.1% (time 10); 0.5% (time 15); 1.5% (time 30); 2.4% (time 45); 3.1% (time 1 hr).

Regarding `NC(N)=O` [Urea], the “percentage increase in mass relative to the weight of the starting sample (water uptake)” value reads like this: (time 5) 31.0%; (time 10) 4.0%; (time 15) 5.5%; (time 30) 10.6%; (time 45) 16.6%; (time 1 hr) 22.4%.
